US10376499B2, “Combination therapy for treatment of resistant bacterial infections” (priority 2014, dated 2019)
Converted amounts (≈) assume the structure as drawn.

Legend:
A. baumannii [1] = test: MIC90 of common antibiotics+compound 1, 196 contemporary clinical isolates of A. baumannii (Example 4); conditions: B-lactam + Cmpd 1 (4 μg/mL)
Citrobacter spp = test: MIC, recent Enterobacteriaceae clinical isolates: Citrobacter spp (Examples 7, 11); format: cell-based; conditions: Citrobacter spp, N 7
A. baumannii [2] = test: MIC, 20 diverse recent strains of A. baumannii (Example 10); format: cell-based, Acinetobacter baumannii; conditions: N 20 A. baumannii strains
Enterobacteriaceae = test: organism not typed; format: cell-based
Klebsiella pneumoniae = test: MIC, recent Enterobacteriaceae clinical isolates: Klebsiella pneumoniae (Examples 7, 11)
Enterobacter cloacae = test: MIC, recent Enterobacteriaceae clinical isolates: Enterobacter cloacae (Examples 7, 11); format: cell-based
Escherichia coli = test: MIC, recent Enterobacteriaceae clinical isolates: Escherichia coli (Examples 7, 11); conditions: Escherichia coli
A. baumannii [3] = test: MIC by broth microdilution (CLSI), panel of 60 A. baumannii clinical isolates (Example 1)

Work on C[C@H]1[C@H](NC(=O)/C(=N\OC(C)(C)C(=O)O)c2csc(N)n2)C(=O)N1S(=O)(=O)O [Aztreonam] yielded an MIC90 (A. baumannii [1]) greater than 64 µg/mL.

Compound CO/N=C(\C(=O)N[C@@H]1C(=O)N2C(C(=O)[O-])=C(C[N+]3(C)CCCC3)CS[C@H]12)c1csc(N)n1 [Cefepime] has an MIC90 (A. baumannii [1]) of 32 µg/mL.

CC(C)(O/N=C(\C(=O)N[C@@H]1C(=O)N2C(C(=O)[O-])=C(C[n+]3ccccc3)CS[C@H]12)c1csc(N)n1)C(=O)O [Ceftazidime] gave an MIC90 (A. baumannii [1]) of 32 µg/mL.

For C[C@@H](O)[C@H]1C(=O)N2C(C(=O)O)=C(SCCNC=N)C[C@H]12 [Imipenem, (5R,6S)-3-[[2-(formimidoylamino)ethyl]thio]-6-[(R)-1-hydroxyethyl]-7-oxo-1-azabicyclo[3.2.0]hept-2-ene-2-carboxylic acid], the MIC50 (Citrobacter spp; read-out: MIC50) was 0.5 µg/mL (≈ 1.67 µM), the MIC90 (Citrobacter spp; read-out: MIC90) was 4 µg/mL (≈ 13.4 µM) and the MIC50 (A. baumannii [2]) was 64 µg/mL (≈ 214 µM). The MIC90 (A. baumannii [2]) was greater than 64 µg/mL, the MIC Max (A. baumannii [2]) was greater than 64 µg/mL and the MIC Min (A. baumannii [2]) was 0.25 µg/mL (≈ 0.835 µM). It also gave an MIC50 (Enterobacteriaceae) of 0.5 µg/mL (≈ 1.67 µM), an MIC90 (Enterobacteriaceae) of 4 µg/mL (≈ 13.4 µM) and an MIC90 (A. baumannii [1]) of 16 µg/mL. The MIC50 (Klebsiella pneumoniae) was 0.25 µg/mL (≈ 0.835 µM), the MIC90 (Klebsiella pneumoniae) was 8 µg/mL (≈ 26.7 µM) and the MIC90 (Enterobacter cloacae; N 10) was 1 µg/mL (≈ 3.34 µM). It also gave an MIC50 (Enterobacter cloacae; N 10, read-out: MIC50) of 0.5 µg/mL (≈ 1.67 µM), an MIC50 (Escherichia coli) of 0.25 µg/mL (≈ 0.835 µM) and an MIC90 (Escherichia coli) of 0.5 µg/mL (≈ 1.67 µM).

Work on CCN1CCN(C(=O)N[C@@H](C(=O)N[C@@H]2C(=O)N3[C@@H]2SC(C)(C)[C@@H]3C(=O)O)c2ccccc2)C(=O)C1=O [Piperacillin] yielded an MIC90 (A. baumannii [1]) of 32 µg/mL.

In the case of gentamycin, the MIC (A. baumannii [3]; strain ARC593, OXA-98) is reported as 8 µg/mL, the MIC (A. baumannii [3]; strain ARC2058, OXA-95) is reported as 1 µg/mL and the MIC (A. baumannii [3]; strain ARC2461, OXA-66, TEM-1) is reported as greater than 32 µg/mL. It also gave an MIC (A. baumannii [3]; strain ARC2462, TEM-1, OXA-66) greater than 32 µg/mL, an MIC (A. baumannii [3]; strain ARC2598, OXA*, TEM-1, OXA-113) of 2 µg/mL and an MIC (A. baumannii [3]; strain ARC2635, OXA-65, OXA-40, TEM-1) greater than 32 µg/mL. The MIC (A. baumannii [3]; strain ARC2636, OXA-65, OXA-40, TEM-1) was greater than 32 µg/mL, the MIC (A. baumannii [3]; strain ARC2674, SHV-5, OXA-113) was 8 µg/mL and the MIC (A. baumannii [3]; strain ARC2675, SHV-5, OXA-113) was greater than 32 µg/mL. The MIC (A. baumannii [3]; strain ARC2681, OXA-40, TEM-1, OXA-132) was greater than 32 µg/mL, the MIC (A. baumannii [3]; strain ARC2682, SHV-5, OXA-113) was greater than 32 µg/mL and the MIC (A. baumannii [3]; strain ARC2777, OXA-172, TEM-1) was 16 µg/mL. For the same compound, the MIC (A. baumannii [3]; strain ARC2778, OXA-40, TEM-1, OXA-65) was greater than 32 µg/mL, the MIC (A. baumannii [3]; strain ARC2779 (A. baumannii/calcoaceticus complex), OXA-2, VIM-2) was greater than 32 µg/mL and the MIC (A. baumannii [3]; strain ARC2780 (A. baumannii/calcoaceticus complex), OXA*, OXA-2, IMP-1) was greater than 32 µg/mL. For the same compound, the MIC (A. baumannii [3]; strain ARC2782, OXA-66, OXA-23, TEM-1, PER-1) was greater than 32 µg/mL, the MIC (A. baumannii [3]; strain ARC2788, OXA-65, TEM-1) was 16 µg/mL and the MIC (A. baumannii [3]; strain ARC3484, TEM-1, OXA-23, OXA-64) was greater than 32 µg/mL. The MIC (A. baumannii [3]; strain ARC3485, OXA-82) was 1 µg/mL, the MIC (A. baumannii [3]; strain ARC3486, OXA-72, OXA-66, TEM-1) was greater than 32 µg/mL and the MIC (A. baumannii [3]; strain ARC3487, OXA-20, OXA-58, OXA-66) was 8 µg/mL. It also gave an MIC (A. baumannii [3]; strain ARC3488, OXA*, OXA-68) greater than 32 µg/mL, an MIC (A. baumannii [3]; strain ARC3489, OXA*, OXA-68) greater than 32 µg/mL and an MIC (A. baumannii [3]; strain ARC3490, TEM-1+, PSE-2, OXA-69) of 16 µg/mL. It also gave an MIC (A. baumannii [3]; strain ARC3491 (A. baumannii/calcoaceticus complex), OXA-215) of 2 µg/mL, an MIC (A. baumannii [3]; strain ARC3492, OXA-40, OXA-132, TEM-1) greater than 32 µg/mL and an MIC (A. baumannii [3]; strain ARC3493, OXA-40, OXA-66) greater than 32 µg/mL. For the same compound, the MIC (A. baumannii [3]; strain ARC3494, OXA-65) was 0.25 µg/mL, the MIC (A. baumannii [3]; strain ARC3495, OXA-40, OXA-109) was greater than 32 µg/mL and the MIC (A. baumannii [3]; strain ARC3513, TEM-1, OXA-23, OXA-65) was greater than 32 µg/mL. The MIC (A. baumannii [3]; strain ARC3515, OXA-64, OXA-58) was 4 µg/mL, the MIC (A. baumannii [3]; strain ARC3657, OXA-130) was 0.25 µg/mL and the MIC (A. baumannii [3]; strain ARC3658, OXA-66, PER-1, TEM-1, OXA-23) was greater than 32 µg/mL. For the same compound, the MIC (A. baumannii [3]; strain ARC3659, OXA-23, OXA*) was greater than 32 µg/mL, the MIC (A. baumannii [3]; strain ARC3882, OXA-23, NDM-1, OXA-10*) was greater than 32 µg/mL and the MIC (A. baumannii [3]; strain ARC5073, OXA-23, TEM-1, OXA-64, PER-1) was 0.5 µg/mL. The MIC (A. baumannii [3]; strain ARC5074, GES*, TEM-1, OXA-51) was 0.125 µg/mL, the MIC (A. baumannii [3]; strain ARC5075, SHV-5, OXA-113) was greater than 32 µg/mL and the MIC (A. baumannii [3]; strain ARC5076, TEM-1, OXA-23, OXA-66) was 8 µg/mL. For the same compound, the MIC (A. baumannii [3]; strain ARC5077, OXA*, OXA-72) was greater than 32 µg/mL, the MIC (A. baumannii [3]; strain ARC5079, OXA-72, OXA-65) was 8 µg/mL and the MIC (A. baumannii [3]; strain ARC5080, OXA-71, OXA-40) was greater than 32 µg/mL. It also gave an MIC (A. baumannii [3]; strain ARC5081, OXA-94, OXA-23) of 0.25 µg/mL, an MIC (A. baumannii [3]; strain ARC5082, OXA-66, OXA-23) of 0.5 µg/mL and an MIC (A. baumannii [3]; strain ARC5083, OXA-66, OXA-23) greater than 32 µg/mL. The MIC (A. baumannii [3]; strain ARC5084, IMP-4(B), OXA-58, OXA-65) was greater than 32 µg/mL, the MIC (A. baumannii [3]; strain ARC5085, OXA*, TEM-1) was greater than 32 µg/mL and the MIC (A. baumannii [3]; strain ARC5086, OXA*, TEM-1, OXA-72, OXA-66) was greater than 32 µg/mL. It also gave an MIC (A. baumannii [3]; strain ARC5087, OXA-66, OXA-23) greater than 32 µg/mL, an MIC (A. baumannii [3]; strain ARC5088, OXA-20, OXA-58, OXA-66) of 8 µg/mL and an MIC (A. baumannii [3]; strain ARC5089, PER*, TEM-1, OXA-23, OXA-66) greater than 32 µg/mL. The MIC (A. baumannii [3]; strain ARC5091, OXA-82, OXA-23) was greater than 32 µg/mL and the MIC (A. baumannii [3]; strain ARC5092, OXA-23, OXA-64) was greater than 32 µg/mL.
